Assay: xn = mol fraction of the nth substance listed

ClCCl + Cc1cccc(C)c1
101 kPa
Settings | viscosity [mPa·s]
293.15 K, x1 = 0.2258 | 0.583
293.15 K, x1 = 0.4249 | 0.553
293.15 K, x1 = 0.4896 | 0.541
293.15 K, x1 = 0.5542 | 0.528
293.15 K, x1 = 0.6288 | 0.512
293.15 K, x1 = 0.769 | 0.482
293.15 K, x1 = 0.8151 | 0.472
298.15 K, x1 = 0.2398 | 0.55
298.15 K, x1 = 0.4075 | 0.527
298.15 K, x1 = 0.4997 | 0.511
298.15 K, x1 = 0.5622 | 0.501
298.15 K, x1 = 0.6288 | 0.485
298.15 K, x1 = 0.6891 | 0.474
298.15 K, x1 = 0.7634 | 0.461
298.15 K, x1 = 0.8183 | 0.451
298.15 K, x1 = 0.8586 | 0.446
303.15 K, x1 = 0.3947 | 0.501
303.15 K, x1 = 0.4925 | 0.483
303.15 K, x1 = 0.5836 | 0.466
303.15 K, x1 = 0.6551 | 0.453
303.15 K, x1 = 0.7164 | 0.441
303.15 K, x1 = 0.7934 | 0.428
303.15 K, x1 = 0.8418 | 0.421
303.15 K, x1 = 0.8669 | 0.417

ClCCl + C1CCOC1
298 K, 101 kPa
Settings | viscosity [mPa·s]
x1 = 0.0981 | 0.455
x1 = 0.2079 | 0.454
x1 = 0.3064 | 0.453
x1 = 0.3509 | 0.452
x1 = 0.4032 | 0.451
x1 = 0.4519 | 0.45
x1 = 0.4994 | 0.449
x1 = 0.5531 | 0.447
x1 = 0.5994 | 0.445
x1 = 0.6477 | 0.443
x1 = 0.6696 | 0.441
x1 = 0.7756 | 0.437
x1 = 0.7999 | 0.435
x1 = 0.9011 | 0.428

CCNc1ccccc1 + CC(C)(C)O
viscosity [mPa·s], 101 kPa
Settings | 303.15 K | 308.15 K
x1 = 0.0789 | 3.287 | 2.6
x1 = 0.1325 | 3.222 | 2.566
x1 = 0.1974 | 3.139 | 2.522
x1 = 0.2562 | 3.061 | 2.478
x1 = 0.3315 | 2.957 | 2.414
x1 = 0.4056 | 2.848 | 2.343
x1 = 0.4868 | 2.717 | 2.256
x1 = 0.5626 | 2.59 | 2.167
x1 = 0.6195 | 2.488 | 2.096
x1 = 0.6889 | 2.359 | 2.003
x1 = 0.7514 | 2.241 | 1.916
x1 = 0.8214 | 2.102 | 1.815
x1 = 0.8914 | 1.96 | 1.71

ClCCl + COC(=O)OC
viscosity [mPa·s], 101.33 kPa
Settings | x2 = 0.0957 | x2 = 0.2018 | x2 = 0.3029 | x2 = 0.3958 | x2 = 0.5009 | x2 = 0.5996 | x2 = 0.6992 | x2 = 0.7599 | x2 = 0.9005
298.15 K | 0.4 | 0.423 | 0.441 | 0.458 | 0.472 | 0.485 | 0.495 | 0.5 | 0.52
303.15 K | 0.384 | 0.4 | 0.419 | 0.431 | 0.447 | 0.461 | 0.47 | 0.478 | 0.49
308.15 K | 0.374 | 0.385 | 0.399 | 0.409 | 0.42 | 0.43 | 0.44 | 0.448 | 0.461

ClCCCl + CCCCCCO
303.15 K, 101 kPa
Settings | viscosity [mPa·s]
x1 = 0.1515 | 2.572
x1 = 0.302 | 1.864
x1 = 0.5095 | 1.235
x1 = 0.6031 | 1.047
x1 = 0.7397 | 0.9
x1 = 0.9017 | 0.73

C1CCC2=[NH+]CCCN2CC1.c1c[n-]cn1 + CS(C)=O
298.15 K, 100 kPa
Settings | viscosity [mPa·s]
x1 = 0.0998 | 3.113
x1 = 0.1996 | 4.415
x1 = 0.2995 | 6.054
x1 = 0.3994 | 8.104
x1 = 0.4994 | 10.52
x1 = 0.5994 | 13.65
x1 = 0.6995 | 17.39
x1 = 0.7996 | 22.07
x1 = 0.8998 | 27.44

CC(C)C[C@H](NC(=O)[C@H](C)N)C(=O)O + O
viscosity [mPa·s], 101 kPa
Settings | x1 = 3.33e-05 | x1 = 7.01e-05 | x1 = 0.000104 | x1 = 0.000146 | x1 = 0.000174 | x1 = 0.0002197 | x1 = 0.0002561 | x1 = 0.0002862 | x1 = 0.0003157 | x1 = 0.0003701
305.15 K | 0.7759 | 0.7781 | 0.7785 | 0.7806 | 0.7826 | 0.7869 | 0.796 | 0.8042 | 0.8098 | 0.8149
310.15 K | 0.7079 | 0.7086 | 0.7126 | 0.7129 | 0.7165 | 0.7198 | 0.7242 | 0.7292 | 0.7334 | 0.7359
315.15 K | 0.6492 | 0.6505 | 0.6525 | 0.6559 | 0.6596 | 0.6605 | 0.6629 | 0.6678 | 0.6692 | 0.6709

ClCCl + COCCO
298.15 K, 101 kPa
Settings | viscosity [mPa·s]
x2 = 0.1103 | 0.5177
x2 = 0.2181 | 0.5832
x2 = 0.3235 | 0.6707
x2 = 0.4266 | 0.7669
x2 = 0.5274 | 0.8908
x2 = 0.626 | 1.029
x2 = 0.7225 | 1.168
x2 = 0.817 | 1.295
x2 = 0.9095 | 1.428

ClCCCl + CCCCCCCO
303.15 K, 101 kPa
Settings | viscosity [mPa·s]
x2 = 0.1082 | 0.852
x2 = 0.1749 | 0.918
x2 = 0.3034 | 1.082
x2 = 0.456 | 1.415
x2 = 0.5496 | 1.752
x2 = 0.622 | 2.078
x2 = 0.7978 | 3.174
x2 = 0.8642 | 3.699
x2 = 0.9346 | 4.286

ClCCl + CC(=O)c1ccccc1
298.15 K, 101 kPa
Settings | viscosity [mPa·s]
x2 = 0.0728 | 0.5046
x2 = 0.1501 | 0.5598
x2 = 0.2324 | 0.6209
x2 = 0.3201 | 0.6967
x2 = 0.4139 | 0.7804
x2 = 0.5144 | 0.8931
x2 = 0.6224 | 1.036
x2 = 0.7386 | 1.212
x2 = 0.8641 | 1.422

CCNc1ccccc1 + CCCCCCCO
viscosity [mPa·s], 101 kPa
Settings | 303.15 K | 308.15 K | 313.15 K
x1 = 0.0812 | 4.393 | 4.271 | 4.154
x1 = 0.1589 | 4.051 | 3.907 | 3.774
x1 = 0.2456 | 3.705 | 3.541 | 3.394
x1 = 0.3612 | 3.288 | 3.108 | 2.948
x1 = 0.4304 | 3.063 | 2.875 | 2.711
x1 = 0.5023 | 2.847 | 2.653 | 2.486
x1 = 0.5744 | 2.646 | 2.449 | 2.278
x1 = 0.6415 | 2.474 | 2.273 | 2.103
x1 = 0.7125 | 2.304 | 2.102 | 1.932
x1 = 0.7754 | 2.166 | 1.963 | 1.794
x1 = 0.8214 | 2.071 | 1.867 | 1.7
x1 = 0.8741 | 1.966 | 1.765 | 1.6
x1 = 0.9214 | 1.878 | 1.678 | 1.516

ClCCl + CCCCOCCO
298.15 K, 101.3 kPa
Settings | viscosity [mPa·s]
x1 = 0.0185 | 2.77
x2 = 0.0035 | 0.408
x2 = 0.0112 | 0.413
x2 = 0.0303 | 0.43
x2 = 0.0521 | 0.451
x2 = 0.1008 | 0.503
x2 = 0.1533 | 0.578
x2 = 0.2175 | 0.671
x2 = 0.293 | 0.807
x2 = 0.362 | 0.943
x2 = 0.4346 | 1.11
x2 = 0.5707 | 1.482
x2 = 0.6642 | 1.753
x2 = 0.7875 | 2.148
x2 = 0.9049 | 2.525

ClCCl + C1COCCO1
viscosity [mPa·s], 101 kPa
Settings | x1 = 0.117 | x1 = 0.1716 | x1 = 0.2883 | x1 = 0.4089 | x1 = 0.4973 | x1 = 0.5905 | x1 = 0.7057 | x1 = 0.7928 | x1 = 0.902
293.15 K | 1.112 | 1.045 | 0.946 | 0.841 | 0.76 | 0.691 | 0.612 | 0.553 | 0.485
298.15 K | 1.027 | 0.97 | 0.882 | 0.786 | 0.713 | 0.654 | 0.579 | 0.525 | 0.46

C[Si]1(C)O[Si](C)(C)O[Si](C)(C)O[Si](C)(C)O1 + CCCCCCCCCC
viscosity [mPa·s], 103 kPa
Settings | 298.15 K | 308.15 K | 318.15 K
x1 = 0.05 | 0.844 | 0.733 | 0.645
x1 = 0.1 | 0.867 | 0.753 | 0.664
x1 = 0.1501 | 0.899 | 0.778 | 0.683
x1 = 0.2 | 0.931 | 0.801 | 0.703
x1 = 0.25 | 0.965 | 0.831 | 0.725
x1 = 0.3 | 1.007 | 0.865 | 0.753
x1 = 0.35 | 1.047 | 0.895 | 0.778
x1 = 0.3999 | 1.086 | 0.93 | 0.802
x1 = 0.45 | 1.134 | 0.964 | 0.833
x1 = 0.5 | 1.183 | 1.006 | 0.867
x1 = 0.5501 | 1.232 | 1.048 | 0.909
x1 = 0.6 | 1.292 | 1.097 | 0.943
x1 = 0.65 | 1.358 | 1.15 | 0.987
x1 = 0.6999 | 1.431 | 1.209 | 1.035
x1 = 0.75 | 1.511 | 1.273 | 1.087
x1 = 0.8 | 1.6 | 1.345 | 1.145
x1 = 0.85 | 1.699 | 1.423 | 1.208
x1 = 0.9 | 1.811 | 1.511 | 1.278
x1 = 0.95 | 1.936 | 1.61 | 1.356

CC(=O)O + CCC(C)=O
viscosity [mPa·s], 101 kPa
Settings | x1 = 0.1006 | x1 = 0.2003 | x1 = 0.3011 | x1 = 0.4019 | x1 = 0.5031 | x1 = 0.6006 | x1 = 0.7023 | x1 = 0.7985 | x1 = 0.8986
298.15 K | 0.4312 | 0.4737 | 0.5266 | 0.5832 | 0.6507 | 0.7259 | 0.8152 | 0.9085 | 1.013
308.15 K | 0.3905 | 0.4255 | 0.4697 | 0.5173 | 0.573 | 0.6346 | 0.7132 | 0.7902 | 0.879
318.15 K | 0.3521 | 0.3832 | 0.4196 | 0.4601 | 0.5058 | 0.559 | 0.6203 | 0.6845 | 0.7622

Reference: the CheMixHub viscosity set
